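Five compound concentrations were applied to cells in 96-well plates for 48 hours; endpoints were derived by simple linear interpolation of the resulting dose-response curve. The concentration for 50% growth inhibition is given as GI50.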 Active and inactive are the calls of the source. No stated cut-off is given here; in the data, active = GI50 up to about 1.1 µM and inactive = higher.
How the values were obtained:
Test in all cases: DTP human tumour cell line panel, 48 h
[1] = tested on: 786-0
[2] = tested on: A498
[3] = tested on: CAKI-1
[4] = tested on: DU-145
[5] = tested on: EKVX
[6] = tested on: K562
[7] = tested on: KM12
[8] = tested on: M14
[9] = tested on: MCF7
[10] = tested on: MDA-MB-435
[11] = tested on: NCI-H460
[12] = tested on: NCI/ADR-RES
[13] = tested on: RPMI-8226
[14] = tested on: RXF 393
[15] = tested on: SF-295
[16] = tested on: SF-539
[17] = tested on: SR
[18] = tested on: SW-620
[19] = tested on: TK-10
[20] = tested on: UO-31

Measured: GI50

COc1ccc2oc(=N)c(C(=O)Nc3ccccc3)cc2c1
inactive: [1] 3.09 µM | [2] 17.1 µM | [3] 5.61 µM | [4] 33.7 µM | [5] 26.8 µM | [6] 1.26 µM | [7] 24.7 µM | [8] 38.1 µM | [9] 12.8 µM | [10] 15.3 µM | [11] 45.5 µM | [12] 16.9 µM | [13] 15.7 µM | [14] 17.3 µM | [15] 16 µM | [16] 20.3 µM | [17] 7.11 µM | [18] 22 µM | [19] 57.5 µM | [20] 45 µM

CCOC(=O)[C@H](Cc1ccc(O)cc1)/N=C1/[C@H]2CCC[C@]1(O)[C@@](C)([N+](=O)[O-])C2
inactive: [1] > 100 µM | [2] > 100 µM | [3] > 100 µM | [4] > 100 µM | [5] > 100 µM | [6] > 100 µM | [7] > 100 µM | [8] > 100 µM | [9] > 100 µM | [10] > 100 µM | [11] > 100 µM | [12] > 100 µM | [13] > 100 µM | [14] > 100 µM | [15] > 100 µM | [16] > 100 µM | [17] > 100 µM | [18] > 100 µM | [19] > 100 µM | [20] > 100 µM

CCOC(=O)Nn1c(C)nnc1-c1ccccc1
inactive: [1] > 100 µM | [2] > 100 µM | [3] > 100 µM | [4] > 100 µM | [5] > 100 µM | [6] > 100 µM | [7] > 100 µM | [8] > 100 µM | [9] > 100 µM | [10] > 100 µM | [11] > 100 µM | [12] > 100 µM | [13] > 100 µM | [14] > 100 µM | [15] > 100 µM | [16] > 100 µM | [17] > 100 µM | [18] > 100 µM | [19] > 100 µM | [20] > 100 µM

c1ccc2c[n+](CCCCCCCCCC[n+]3ccc4ccccc4c3)ccc2c1
inactive: [1] > 10 µM | [2] > 10 µM | [3] > 10 µM | [4] > 4.81 µM | [5] 2.07 µM | [6] 2.04 µM | [7] > 5.68 µM | [8] > 10 µM | [9] > 10 µM | [10] > 10 µM | [11] > 10 µM | [12] > 10 µM | [13] > 10 µM | [14] > 10 µM | [15] 3.59 µM | [16] > 10 µM | [17] > 10 µM | [18] > 10 µM | [19] > 10 µM | [20] > 10 µM

COc1ccc2c(-c3csc(-c4c[nH]c5ccccc45)n3)c[nH]c2c1
inactive: [1] 5.53 µM | [2] 8.65 µM | [3] 12.1 µM | [4] 9.18 µM | [5] 1.37 µM | [6] 3.44 µM | [7] 3.21 µM | [8] 7.76 µM | [9] 4.36 µM | [10] 13.8 µM | [11] 2.29 µM | [12] 6.61 µM | [13] 3.77 µM | [14] 5.01 µM | [15] 9.64 µM | [16] 5.73 µM | [17] 1.56 µM | [18] 6.92 µM | [19] 9.2 µM | [20] 5.9 µM

O=C1c2c(Br)sc(Br)c2[C@H]2OC(=S)N[C@@H]12
inactive: [1] 11.3 µM | [2] 18.3 µM | [3] 3.25 µM | [4] 12.8 µM | [5] 4.89 µM | [6] 2.29 µM | [7] 14.4 µM | [8] 1.95 µM | [9] 9.38 µM | [10] 2.96 µM | [11] 16.6 µM | [12] 8.51 µM | [13] 4.68 µM | [14] 3.14 µM | [15] 15.2 µM | [16] 16.6 µM | [17] 1.67 µM | [18] 2.43 µM | [19] 20.2 µM | [20] 1.75 µM
